Patent US5792761A, “Thrombin inhibitors” (Merck & Co., Inc., priority 1997, dated 1998)
Non-standard residues stand in square brackets, D forms with d. Residues, ends and D or L forms follow the SMILES beside them. *: point of attachment. AFC = O=c1cc(C(F)(F)F)c2ccc(N*)cc2o1; pNA = O=[N+]([O-])c1ccc(N*)cc1; Cbz = O=C(OCc1ccccc1)*; Sar = CNCC(=O)O

Assays:
thrombin = experiment: More sensitive thrombin activity assay: hydrolysis of fluorogenic substrate Z-GPR-afc (fluorescence at 500 nm); assay type: biochemical, human; conditions: fluorescence at 500 nm (excitation at 400 nm)
Procedure: (§1) Assays of human a-thrombin and human trypsin were performed at 25° C. in 0.05M TRIS buffer pH 7.4, 0.15M NaCl, 0.1% PEG. Trypsin assays also contained 1 mM CaCl2.
(§2) In certain studies with potent inhibitors (Ki <10 nM) where the degree of inhibition of thrombin was high, a more sensitive activity assay was employed. […] Concentrations of stock solutions of Z-GPR-afc were determined from measurements of absorbance at 380 nm of the 7-amino-4-trifluoromethyl coumarin produced upon complete hydrolysis of an aliquot of the stock solution by thrombin.
(§3) Activity assays were performed by diluting a stock solution of substrate at least tenfold to a final concentration 0.5 Km into a solution containing enzyme or enzyme equilibrated with inhibitor. Times required to achieve equilibration between enzyme and inhibitor were determined in control experiments. Initial velocities of product formation in the absence (Vo) or presence of inhibitor (Vi) were measured. Assuming competitive inhibition, and that unity is negligible compared Km /[S], […] (where [S], [I], and e respectively represent the total concentrations, of substrate, inhibitor and enzyme), the equilibrium constant (Ki) for dissociation of the inhibitor from the enzyme can be obtained from the dependence of Vo /Vi on [I] shown in equation 1.

human thrombin = experiment: In vitro assay for determining proteinase inhibition: human thrombin (sar-PR-pna hydrolysis at 405 nm; Z-GPR-afc for potent inhibitors); assay type: biochemical; conditions: 25° C., pH 7.4; chromogenic substrate
Procedure: (§4) In vitro assay for determining proteinase inhibition
as §1, §2, §3

human trypsin = experiment: In vitro assay for determining proteinase inhibition: human trypsin (sar-PR-pna hydrolysis at 405 nm); assay type: biochemical; conditions: 25° C., pH 7.4, 1 mM CaCl2; chromogenic substrate
Procedure: as §4, §1, §3

| SMILES | Km (thrombin) [µM] | Km (human thrombin) [µM] | Km (human trypsin) [µM] |
| --- | --- | --- | --- |
| N=C(N)NCCC[C@H](NC(=O)[C@@H]1CCCN1C(=O)CNC(=O)OCc1ccccc1)C(=O)Nc1ccc2c(C(F)(F)F)cc(=O)oc2c1 [Z-GPR-afc, Cbz-Gly-Pro-Arg-7-amino-4-trifluoromethylcoumarin] (Cbz-Gly-Pro-Arg-{AFC}) | 27 |  |  |
| CNCC(=O)N1CCC[C@H]1C(=O)N[C@@H](CCCNC(=N)N)C(=O)Nc1ccc([N+](=O)[O-])cc1 [sar-PR-pna, sarcosine-Pro-Arg-p-nitroanilide] (H-[Sar]-Pro-Arg-pNA) |  | 125 | 59 |
